Test results published in PubChem BioAssay (NCI).
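Five concentrations, 48 hours, 96-well plates. Definition used: TGI = concentration required for complete inhibition of growth.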

Key:
Assay in all cases: growth of human tumour cells (NCI), 48 h
[1] = test system: DU-145 prostate
[2] = test system: NCI-H23 lung
[3] = test system: COLO 205 colon
[4] = test system: HCT-15 colon
[5] = test system: MDA-MB-231 breast
[6] = test system: HOP-62 NSCLC
[7] = test system: HCT-116 colon
[8] = test system: EKVX NSCLC
[9] = test system: KM12 colon
[10] = test system: BT-549 breast
[11] = test system: NCI-H460 lung
[12] = test system: OVCAR-3 ovarian
[13] = test system: K-562 leukemia
[14] = test system: MOLT-4 leukemia
[15] = test system: OVCAR-8 ovarian
[16] = test system: UACC-62 melanoma
[17] = test system: HT29 colon
[18] = test system: MALME-3M melanoma
[19] = test system: NCI-H522 lung
[20] = test system: MDA-MB-435
[21] = test system: SNB-19 CNS
[22] = test system: SF-539 CNS
[23] = test system: A549 NSCLC
[24] = test system: SF-295 CNS
[25] = test system: M14 melanoma
[26] = test system: SK-MEL-28 melanoma
[27] = test system: OVCAR-4 ovarian
[28] = test system: SK-MEL-5 melanoma
[29] = test system: SK-OV-3 ovarian
[30] = test system: OVCAR-5 ovarian
[31] = test system: HS 578T breast
[32] = test system: LOX IMVI melanoma
[33] = test system: SNB-75 CNS
[34] = test system: IGROV1 ovarian
[35] = test system: RPMI-8226 leukemia
[36] = test system: CAKI-1 renal
[37] = test system: UO-31 renal
[38] = test system: T-47D breast
[39] = test system: MCF7 breast
[40] = test system: PC-3 prostate
[41] = test system: HOP-92 NSCLC
[42] = test system: 786-0 renal
[43] = test system: TK-10 renal
[44] = test system: MDA-N
[45] = test system: HCC-2998 colon
[46] = test system: SW-620 colon
[47] = test system: SF-268 CNS
[48] = test system: SN12C renal
[49] = test system: SK-MEL-2 melanoma
[50] = test system: NCI/ADR-RES ovarian
[51] = test system: A498 renal
[52] = test system: U251 CNS
[53] = test system: UACC-257 melanoma
[54] = test system: ACHN renal
[55] = test system: NCI-H226 lung
[56] = test system: RXF 393 renal
[57] = test system: CCRF-CEM leukemia

Question: Which results are given for `COc1ccc(N2C(=O)C3c4[nH]c5cccc(Cl)c5c4C4CCC(C(C)(C)C)CC4C3C2=O)cc1` (stereo unspecified)?
Answer: TGI [1]: > 100 µM; TGI [2]: > 100 µM; TGI [3]: > 100 µM; TGI [4]: > 100 µM; TGI [5]: > 100 µM; TGI [6]: 53.5 µM; TGI [7]: > 100 µM; TGI [8]: > 100 µM; TGI [9]: > 100 µM; TGI [10]: > 100 µM; TGI [11]: > 100 µM; TGI [12]: > 100 µM; TGI [13]: > 100 µM; TGI [14]: > 100 µM; TGI [15]: > 100 µM; TGI [16]: > 100 µM; TGI [17]: > 100 µM; TGI [18]: > 100 µM; TGI [19]: > 100 µM; TGI [20]: > 100 µM; TGI [21]: > 100 µM; TGI [22]: > 100 µM; TGI [23]: > 100 µM; TGI [24]: > 100 µM; TGI [25]: > 100 µM; TGI [26]: > 100 µM; TGI [27]: > 100 µM; TGI [28]: > 100 µM; TGI [29]: > 100 µM; TGI [30]: > 100 µM; TGI [31]: 90.7 µM; TGI [32]: > 100 µM; TGI [33]: 53.2 µM; TGI [34]: > 100 µM; TGI [35]: > 100 µM; TGI [36]: > 100 µM; TGI [37]: > 100 µM; TGI [38]: > 100 µM; TGI [39]: > 100 µM; TGI [40]: > 100 µM; TGI [41]: > 100 µM; TGI [42]: > 100 µM; TGI [43]: > 100 µM; TGI [44]: > 100 µM; TGI [45]: > 100 µM; TGI [46]: > 100 µM; TGI [47]: > 100 µM; TGI [48]: > 100 µM; TGI [49]: > 100 µM; TGI [50]: > 100 µM; TGI [51]: > 100 µM; TGI [52]: > 100 µM; TGI [53]: > 100 µM; TGI [54]: > 100 µM; TGI [55]: > 100 µM

Question: Which results are given for `COc1ccc(-n2cnc3c(N)nc(N)nc32)cc1`?
Answer: TGI [1]: > 100 µM; TGI [2]: > 100 µM; TGI [3]: > 100 µM; TGI [4]: > 100 µM; TGI [5]: > 100 µM; TGI [6]: > 100 µM; TGI [7]: > 100 µM; TGI [8]: > 100 µM; TGI [9]: > 100 µM; TGI [10]: > 100 µM; TGI [12]: > 100 µM; TGI [14]: > 100 µM; TGI [15]: > 100 µM; TGI [16]: > 100 µM; TGI [17]: > 100 µM; TGI [18]: > 100 µM; TGI [19]: > 100 µM; TGI [20]: > 100 µM; TGI [21]: > 100 µM; TGI [22]: > 100 µM; TGI [23]: > 100 µM; TGI [24]: > 100 µM; TGI [25]: > 100 µM; TGI [26]: > 100 µM; TGI [27]: > 100 µM; TGI [28]: > 100 µM; TGI [29]: > 100 µM; TGI [30]: > 100 µM; TGI [31]: 87 µM; TGI [33]: 77.9 µM; TGI [34]: > 100 µM; TGI [35]: > 100 µM; TGI [36]: > 100 µM; TGI [37]: > 100 µM; TGI [38]: > 100 µM; TGI [39]: > 100 µM; TGI [40]: > 100 µM; TGI [41]: > 100 µM; TGI [42]: > 100 µM; TGI [56]: > 100 µM; TGI [43]: > 100 µM; TGI [57]: > 100 µM; TGI [44]: > 100 µM; TGI [45]: > 100 µM; TGI [46]: > 100 µM; TGI [47]: > 100 µM; TGI [48]: > 100 µM; TGI [49]: > 100 µM; TGI [50]: > 100 µM; TGI [51]: > 100 µM; TGI [52]: > 100 µM; TGI [53]: > 100 µM; TGI [54]: > 100 µM; TGI [55]: > 100 µM

Question: Which results are given for `C[C@@H]1OC(=O)C[C@H]2CC(=O)N(CCC3CN(C(=O)c4ccccc4)c4ccccc43)C[C@@H]21` (stereo partly specified)?
Answer: TGI [1]: > 100 µM; TGI [2]: > 100 µM; TGI [3]: > 100 µM; TGI [4]: > 100 µM; TGI [5]: > 100 µM; TGI [6]: > 100 µM; TGI [7]: > 100 µM; TGI [8]: > 100 µM; TGI [9]: > 100 µM; TGI [10]: > 100 µM; TGI [11]: > 100 µM; TGI [12]: > 100 µM; TGI [13]: > 100 µM; TGI [14]: > 100 µM; TGI [15]: > 100 µM; TGI [16]: > 100 µM; TGI [17]: > 100 µM; TGI [18]: > 100 µM; TGI [19]: > 100 µM; TGI [20]: > 100 µM; TGI [21]: > 100 µM; TGI [23]: > 100 µM; TGI [24]: > 100 µM; TGI [25]: > 100 µM; TGI [26]: > 100 µM; TGI [27]: > 100 µM; TGI [28]: > 100 µM; TGI [29]: > 100 µM; TGI [30]: > 100 µM; TGI [31]: > 100 µM; TGI [33]: > 100 µM; TGI [34]: > 100 µM; TGI [35]: > 100 µM; TGI [36]: > 100 µM; TGI [37]: > 100 µM; TGI [38]: > 100 µM; TGI [39]: > 100 µM; TGI [40]: > 100 µM; TGI [41]: > 100 µM; TGI [42]: > 100 µM; TGI [56]: > 100 µM; TGI [43]: > 100 µM; TGI [44]: > 100 µM; TGI [45]: > 100 µM; TGI [46]: > 100 µM; TGI [47]: > 100 µM; TGI [49]: > 100 µM; TGI [50]: > 100 µM; TGI [51]: > 100 µM; TGI [52]: > 100 µM; TGI [53]: > 100 µM; TGI [54]: > 100 µM
